According to ChEMBL document CHEMBL6121052, “Design of ROS-Triggered Sesquiterpene Lactone SC Prodrugs as TrxR1 Covalent Inhibitors for the Treatment of Non-Small Cell Lung Cancer” (J Med Chem, 2025):
The source made the active and inactive calls. The rule behind the calls is not given here.

What was measured:
[1] = tested on: A549; test: Cytotoxicity against human A549 cells assessed as cell viability incubated for 48 hrs by MTT assay; format: functional, cell-based; settings: A549, 48 h
[2] = tested on: NCI-H460; test: Cytotoxicity against human NCI-H460 cells assessed as cell viability incubated for 48 hrs by MTT assay; format: functional, cell-based; settings: for IC50: NCI-H460, 48 h

SMILES | IC50 [1] | IC50 [2] | Activity [2]
C/C1=C\[C@@H](OC(=O)c2ccccc2)[C@H]2[C@H](CC3=C[C@H](C1)OC3=O)OC(=O)[C@@H]2CSc1ccc(SC[C@H]2C(=O)O[C@H]3CC4=C[C@H](C/C(C)=C/[C@@H](OC(=O)c5ccccc5)[C@@H]32)OC4=O)cc1 | > 25 µM | > 25 µM | –
CCCCCSC[C@H]1C(=O)O[C@H]2CC3=C[C@H](C/C(C)=C/[C@@H](OC(=O)c4ccccc4)[C@@H]21)OC3=O | > 25 µM | > 25 µM | –
C/C1=C\[C@@H](OC(=O)OCc2cccs2)[C@H]2[C@H](CC3=C[C@H](C1)OC3=O)OC(=O)[C@@H]2CSC(=S)N(C)C | 2.56 µM | – | –
C/C1=C\[C@@H](OC(=O)/C=C/c2ccccc2)[C@H]2[C@H](CC3=C[C@H](C1)OC3=O)OC(=O)[C@@H]2CSc1ccc(SC[C@H]2C(=O)O[C@H]3CC4=C[C@H](C/C(C)=C/[C@@H](OC(=O)/C=C/c5ccccc5)[C@@H]32)OC4=O)cc1 | > 25 µM | > 25 µM | –
C/C1=C\[C@@H](O)[C@H]2[C@H](CC3=C[C@H](C1)OC3=O)OC(=O)[C@@H]2CSc1nc2ccccc2s1 | > 25 µM | > 25 µM | –
C/C1=C\[C@@H](OC(=O)C2CC2)[C@H]2[C@H](CC3=C[C@H](C1)OC3=O)OC(=O)[C@@H]2CSc1cccc(Br)c1 | 5.77 µM | > 25 µM | –
C/C1=C\[C@@H](OC(=O)C2CC2)[C@H]2[C@H](CC3=C[C@H](C1)OC3=O)OC(=O)[C@@H]2CSCCCCCCCCSC[C@H]1C(=O)O[C@H]2CC3=C[C@H](C/C(C)=C/[C@@H](OC(=O)C4CC4)[C@@H]21)OC3=O | > 25 µM | > 25 µM | –
C/C1=C\[C@@H](OC(=O)c2ccccc2)[C@H]2[C@H](CC3=C[C@H](C1)OC3=O)OC(=O)[C@@H]2CSCCOCCOCCSC[C@H]1C(=O)O[C@H]2CC3=C[C@H](C/C(C)=C/[C@@H](OC(=O)c4ccccc4)[C@@H]21)OC3=O | > 25 µM | > 25 µM | –
C#CCNC(=O)O[C@@H]1/C=C(\C)C[C@H]2C=C(C[C@@H]3OC(=O)[C@H](CSc4ccc(F)cc4)[C@H]31)C(=O)O2 | 22.1 µM | – | –
C/C1=C\[C@@H](OC(=O)/C=C/c2ccccc2)[C@H]2[C@H](CC3=C[C@H](C1)OC3=O)OC(=O)[C@@H]2CSc1ccc(Br)cc1 | 11.8 µM | > 25 µM | –
C/C1=C\[C@@H](OC(=O)/C=C/c2ccccc2)[C@H]2[C@H](CC3=C[C@H](C1)OC3=O)OC(=O)[C@@H]2CSCCCCCCCCCCSC[C@H]1C(=O)O[C@H]2CC3=C[C@H](C/C(C)=C/[C@@H](OC(=O)/C=C/c4ccccc4)[C@@H]21)OC3=O | > 25 µM | > 25 µM | –
C/C1=C\[C@@H](OC(=O)C2CC2)[C@H]2[C@H](CC3=C[C@H](C1)OC3=O)OC(=O)[C@@H]2CSc1nc2ccccc2s1 | 17.2 µM | > 25 µM | –
C/C1=C\[C@@H](OC(=O)c2ccccc2)[C@H]2[C@H](CC3=C[C@H](C1)OC3=O)OC(=O)[C@@H]2CSCCCCCSC[C@H]1C(=O)O[C@H]2CC3=C[C@H](C/C(C)=C/[C@@H](OC(=O)c4ccccc4)[C@@H]21)OC3=O | > 25 µM | > 25 µM | –
CCCNC(=S)SC[C@H]1C(=O)O[C@H]2CC3=C[C@H](C/C(C)=C/[C@@H](OC(=O)C4CC4)[C@@H]21)OC3=O | 2.85 µM | 24.9 µM | –
C/C1=C\[C@@H](OC(=O)/C=C/c2ccccc2)[C@H]2[C@H](CC3=C[C@H](C1)OC3=O)OC(=O)[C@@H]2CSCc1ccc(Cl)cc1 | > 25 µM | > 25 µM | –
C/C1=C\[C@@H](OC(=O)C2CC2)[C@H]2[C@H](CC3=C[C@H](C1)OC3=O)OC(=O)[C@@H]2CSC(=S)NC(C)C | 1.94 µM | > 25 µM | –
C/C1=C\[C@@H](OC(=O)c2ccccc2)[C@H]2[C@H](CC3=C[C@H](C1)OC3=O)OC(=O)[C@@H]2CSc1ccc(Br)cc1 | 8.85 µM | > 25 µM | –
C/C1=C\[C@@H](O)[C@H]2[C@H](CC3=C[C@H](C1)OC3=O)OC(=O)[C@@H]2CSCCCCCCCCSC[C@H]1C(=O)O[C@H]2CC3=C[C@H](C/C(C)=C/[C@@H](O)[C@@H]21)OC3=O | > 25 µM | > 25 µM | –

SMILES | IC50 [1] | IC50 [2] | Activity [2]
C/C1=C\[C@@H](OC(=O)C2CC2)[C@H]2[C@H](CC3=C[C@H](C1)OC3=O)OC(=O)[C@@H]2CSCCCCCSC[C@H]1C(=O)O[C@H]2CC3=C[C@H](C/C(C)=C/[C@@H](OC(=O)C4CC4)[C@@H]21)OC3=O | > 25 µM | > 25 µM | –
C/C1=C\[C@@H](OC(=O)NCc2cccnc2)[C@H]2[C@H](CC3=C[C@H](C1)OC3=O)OC(=O)[C@@H]2CSc1ccc(F)cc1 | 19.3 µM | – | –
C/C1=C\[C@@H](OC(=O)N2CCCC2)[C@H]2[C@H](CC3=C[C@H](C1)OC3=O)OC(=O)[C@@H]2CSc1ccc(F)cc1 | 7.51 µM | – | –
C/C1=C\[C@@H](OC(=O)OC2CC2)[C@H]2[C@H](CC3=C[C@H](C1)OC3=O)OC(=O)[C@@H]2CSC(=S)N(C)C | 1.29 µM | – | –
CCCCCSC(=O)O[C@@H]1/C=C(\C)C[C@H]2C=C(C[C@@H]3OC(=O)[C@H](CSc4ccc(F)cc4)[C@H]31)C(=O)O2 | 10.7 µM | – | –
C/C1=C\[C@@H](OC(=O)OCc2cccs2)[C@H]2[C@H](CC3=C[C@H](C1)OC3=O)OC(=O)[C@@H]2CSc1ccc(F)cc1 | 22.6 µM | – | –
CCCNC(=O)O[C@@H]1/C=C(\C)C[C@H]2C=C(C[C@@H]3OC(=O)[C@H](CSc4ccc(F)cc4)[C@H]31)C(=O)O2 | 10.5 µM | – | –
C/C1=C\[C@@H](OC(=O)NCc2cccs2)[C@H]2[C@H](CC3=C[C@H](C1)OC3=O)OC(=O)[C@@H]2CSc1ccc(F)cc1 | 5.51 µM | – | –
C/C1=C\[C@@H](OC(=O)NC2CC2)[C@H]2[C@H](CC3=C[C@H](C1)OC3=O)OC(=O)[C@@H]2CSC(=S)N(C)C | 2.08 µM | – | –
C[C@@]12C[C@H]3C=C(C[C@@H]4OC(=O)[C@H](CSc5ccc(F)cc5)[C@H]4[C@H](OC(=O)C4CC4)[C@H]1O2)C(=O)O3 | – | – | inactive
C/C1=C\[C@@H](OC(=O)SC2CCCCC2)[C@H]2[C@H](CC3=C[C@H](C1)OC3=O)OC(=O)[C@@H]2CSC(=S)N(C)C | 2.01 µM | – | –
C/C1=C\[C@@H](OC(=O)NCc2cccs2)[C@H]2[C@H](CC3=C[C@H](C1)OC3=O)OC(=O)[C@@H]2CSC(=S)N(C)C | 2.8 µM | – | –
C/C1=C\[C@@H](OC(=O)SC2CCCCC2)[C@H]2[C@H](CC3=C[C@H](C1)OC3=O)OC(=O)[C@@H]2CSc1ccc(F)cc1 | 3.94 µM | – | –
C#CCNC(=O)O[C@@H]1/C=C(\C)C[C@H]2C=C(C[C@@H]3OC(=O)[C@H](CSC(=S)N(C)C)[C@H]31)C(=O)O2 | 1.76 µM | – | –
C/C1=C\[C@@H](OC(=O)SCC(C)C)[C@H]2[C@H](CC3=C[C@H](C1)OC3=O)OC(=O)[C@@H]2CSC(=S)N(C)C | 1.37 µM | – | –
C/C1=C\[C@@H](OC(=O)OCc2ccc(F)cc2)[C@H]2[C@H](CC3=C[C@H](C1)OC3=O)OC(=O)[C@@H]2CSc1ccc(F)cc1 | 7.29 µM | – | –
C/C1=C\[C@@H](OC(=O)NC2CC2)[C@H]2[C@H](CC3=C[C@H](C1)OC3=O)OC(=O)[C@@H]2CSc1ccc(F)cc1 | 15.9 µM | – | –
